Test [1] deals with T1, CAAX prenyl protease 2 (Saccharomyces cerevisiae S288c, UniProt Q03530).
T1 sequence (Q03530 whole entry): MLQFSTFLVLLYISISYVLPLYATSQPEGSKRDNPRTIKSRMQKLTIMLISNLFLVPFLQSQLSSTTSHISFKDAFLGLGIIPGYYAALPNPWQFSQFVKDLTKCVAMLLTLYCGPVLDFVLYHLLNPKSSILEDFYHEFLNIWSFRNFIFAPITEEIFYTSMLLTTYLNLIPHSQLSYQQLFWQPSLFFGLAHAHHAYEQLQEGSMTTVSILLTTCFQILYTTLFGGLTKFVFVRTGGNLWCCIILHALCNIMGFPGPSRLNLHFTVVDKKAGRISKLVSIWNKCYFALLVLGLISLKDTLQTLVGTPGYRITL
Description: yeast Rce1 CaaX protease inhibitors, dose response, biochemical, plate reader, dry powder retest (AID 588851).

Test [2] deals with T1, CAAX prenyl protease 2. The format is biochemical.
Test [3] relates to INS1. Nature of the test: beta cell apoptosis inhibitors, cytokine rescue, dose response, luminescence, retest (AID 449756).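 Further: cell death triggered by IL-1 beta plus TNF-alpha plus IFN-gamma mixture; protective hits raise ATP signal compared with cytokine alone wells.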 The format is functional, cell-based. As to conditions: Rattus norvegicus.
The nature of test [4]: miR-122 activators in hepatoma reporter cells, dose response, cell-based, Huh7 psiCHECK-miR122, Renilla luciferase, cherry-picked (AID 651956).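 Further: huh7 hepatoma cells stably carrying a psiCHECK-2 miR-122 sensor plasmid; renilla luciferase signal reporting endogenous miR-122 activity after 48 h compound exposure.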 Type of test: functional.
The test system of test [5] is BJ. Description: cytotoxicity toward BJ-TERT-LT-ST fibroblasts, dose response, cell-based, RAS-independent, luminescence (AID 1935).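 Further: BJ fibroblasts immortalized with TERT plus LT and ST oncogenes.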 Type of test: functional. The following applies: Homo sapiens.
Test [6] can be described thus: Luminescence-based dose response cell-based high throughput screening assay for cytotoxic compounds using the IEC-6 intestinal epithelial cell line. [Related pubchem assays: 1858 (Summary AID.), 1825 (Counterscreen.), 1907 (Confirmation screen.)]. Type of test: functional. A general note: The purpose of a counterscreen is to sort out artefacts and off-target activity.

Test [7] in a line: HEK293T cytotoxicity, dose response, cytotoxicity control for miR-122 modulator project, cell-based, inhibitor set, cherry-pick, set 2 (AID 720697). Type of test: functional.
Test [8] can be described thus: cytotoxicity toward DRD oncogenic fibroblasts, dose response, cell-based, non-viral oncogenic, luminescence (AID 1934). As to conditions: Homo sapiens. The format is functional.
Test [9] can be described thus: inhibitors of SNCA 5'UTR-driven reporter translation, confirmation, H4 neuroglioma cells, luminescence (AID 1988). Type of test: functional, cell-based.
Test [10] can be described thus: inhibitors of firefly luciferase expression or activity, dose response, H4 neuroglioma cells, luminescence (AID 1990). The format is functional, cell-based.
The target in test [11] is T2, Neuropeptide Y receptor type 1 (Homo sapiens, UniProt P25929).
T2 sequence (P25929 whole entry): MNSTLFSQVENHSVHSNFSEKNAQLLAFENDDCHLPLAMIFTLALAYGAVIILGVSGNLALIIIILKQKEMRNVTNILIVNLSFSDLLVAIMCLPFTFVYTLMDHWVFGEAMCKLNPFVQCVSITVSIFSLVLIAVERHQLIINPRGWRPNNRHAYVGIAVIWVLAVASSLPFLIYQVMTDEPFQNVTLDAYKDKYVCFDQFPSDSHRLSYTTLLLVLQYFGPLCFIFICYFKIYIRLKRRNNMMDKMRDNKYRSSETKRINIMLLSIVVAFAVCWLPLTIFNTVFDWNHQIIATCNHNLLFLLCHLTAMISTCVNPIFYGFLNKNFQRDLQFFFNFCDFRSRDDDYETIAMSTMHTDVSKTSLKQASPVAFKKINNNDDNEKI
Description: Fluorescence-based counterscreen for agonists of NPY-Y2: cell-based high-throughput dose response assay for agonists of NPY-Y1. Type of test: functional.

Test [12] deals with Sphingosine 1-phosphate receptor 2 (Homo sapiens, UniProt O95136). Nature of the test: Dose Response Cell Based Assay for Antagonists of the S1P2 Receptor. [Related pubchem assays: 856, 736 ]. The format is functional.
Test [13] deals with T3, Neuropeptide Y receptor type 2 (Homo sapiens, UniProt P49146).
T3 sequence (P49146 whole entry): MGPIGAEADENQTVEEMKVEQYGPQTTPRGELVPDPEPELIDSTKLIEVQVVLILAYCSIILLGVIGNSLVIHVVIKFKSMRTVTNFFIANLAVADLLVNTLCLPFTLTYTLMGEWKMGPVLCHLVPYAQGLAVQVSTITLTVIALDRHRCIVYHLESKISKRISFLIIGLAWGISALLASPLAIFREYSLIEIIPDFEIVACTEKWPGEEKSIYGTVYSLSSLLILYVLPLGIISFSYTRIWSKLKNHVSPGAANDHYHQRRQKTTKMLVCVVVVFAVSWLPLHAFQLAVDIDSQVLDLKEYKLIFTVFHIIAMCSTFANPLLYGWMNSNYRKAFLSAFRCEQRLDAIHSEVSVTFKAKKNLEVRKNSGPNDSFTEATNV
Nature of the test: Fluorescence-based cell-based high-throughput dose response assay for agonists of NPY-Y2. [Related pubchem assays: 1703 (Screening assay (CNGC inhibitors).), 1359 (Screening assay (NPY-Y2 potentiators or agonists).), 1304 (Screening assay (NPY-Y1 potentiators or agonists).), 1710 (Screening assay (NPY-Y2 agonists).), 1791 (Summary AID.)]. The format is functional.

In test [14] the test system is HEK293. Nature of the test: Fluorescence-based counterscreen for potentiators or agonists of NPY-Y2: cell-based high-throughput dose response assay to identify inhibitors of cyclic nucleotide gated ion channel (CNGC) activity. In this assay, the parental HEK293 cell line transfected with a cyclic-nucleotide gated ion channel (CNGC)-based cAMP sensor is used to measure inhibition of isoproterenol-induced CNGC activity by test compound. The format is functional. The following applies: Homo sapiens.

The nature of test [15]: Luminescence Cell-Based Dose Response HTS to Identify Inhibitors of 5'UTR Stem-Loop Driven Prion Protein mRNA Translation in H4 Neuroglioblastoma Cells. [Related pubchem assays: 1827 (Project Summary), 1813 (Primary HTS)]. Type of test: functional.
Test [16] can be described thus: HEK293T cytotoxicity, dose response, cytotoxicity control for miR-122 modulator project, cell-based, activator set, cherry-pick (AID 720690).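 Further: HEK293T human cells scored for general mammalian cytotoxicity.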 Type of test: functional.
Test [17] concerns BJ. Description: cytotoxicity toward Ras-transformed BJeLR fibroblasts, dose response, cell-based, alamar blue fluorescence, cherrypicked samples (AID 2631).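 Further: confirmatory dose-response assay in RAS-dependent BJ fibroblasts engineered with TERT, LT and ST, with cytotoxicity read by fluorescence.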 The format is functional. The following applies: Homo sapiens. (In general: Alamar Blue is a resazurin reagent that responds to reducing activity.)
The subject of test [18] is BJ. Description: cytotoxicity toward BJ-TERT fibroblasts, dose response, cell-based, RAS-independent, luminescence (AID 1933). The format is functional. As to conditions: Homo sapiens.
The target of test [19] is Latent membrane protein 1 (Human herpesvirus 4 (strain B95-8), UniProt P03230). Description: TES1-eGFP NF-kB reporter inhibition versus Tet-On dsRED, dose response, selectivity assay for LMP1 NF-kB inhibitor project, imaging, HEK293T, dual-color eGFP/dsRED, cherry-picks (AID 588398). The format is functional, cell-based.
Test [20] is described as follows: cytotoxicity in HEK-293T cells, dose response, cytotoxicity control for TCR NF-kB inhibitor project, luminescence, T-cell screen hits (AID 489026).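 Further: cells exposed to compound about 14 hours before the viability readout.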 The format is functional, cell-based.
In test [21] the test system is BJ. Description: cells. Type of test: functional, cell-based. The following applies: Homo sapiens.
The subject of test [22] is HEK293. Nature of the test: inhibitors of LMP1-driven NF-kB reporter, dose response, cell-based, HEK293, luciferase, cherry-pick (AID 588343). Type of test: functional. As to conditions: Homo sapiens.
For test [23], the target named is DNA topoisomerase (Yersinia pestis, UniProt A0A2S9PM60). Nature of the test: Y. pestis Topo-I inhibitors, cleavage product readout, dose response, biochemical, cherry-pick (AID 588525).
Test [24] addresses Glycogen synthase kinase-3 beta (Homo sapiens, UniProt P49841). Nature of the test: Inhibition of Human GSK-3 beta Activity Measured in Biochemical System Using Microfluidics - 2063-05_Inhibitor_Dose_DryPowder_Activity_Set2. [Related pubchem assays (depositor defined):AID2709].
Test [25] addresses Glycogen synthase kinase-3 alpha (Homo sapiens, UniProt P49840). Nature of the test: Inhibition of Human GSK-3 alpha Activity Measured in Biochemical System Using Microfluidics - 2063-06_Inhibitor_Dose_DryPowder_Activity_Set2. [Related pubchem assays (depositor defined):AID2709].

SMILES strings stand for the structures. The source made the active and inactive calls.

Latent membrane protein 1, sequence (P03230 whole entry): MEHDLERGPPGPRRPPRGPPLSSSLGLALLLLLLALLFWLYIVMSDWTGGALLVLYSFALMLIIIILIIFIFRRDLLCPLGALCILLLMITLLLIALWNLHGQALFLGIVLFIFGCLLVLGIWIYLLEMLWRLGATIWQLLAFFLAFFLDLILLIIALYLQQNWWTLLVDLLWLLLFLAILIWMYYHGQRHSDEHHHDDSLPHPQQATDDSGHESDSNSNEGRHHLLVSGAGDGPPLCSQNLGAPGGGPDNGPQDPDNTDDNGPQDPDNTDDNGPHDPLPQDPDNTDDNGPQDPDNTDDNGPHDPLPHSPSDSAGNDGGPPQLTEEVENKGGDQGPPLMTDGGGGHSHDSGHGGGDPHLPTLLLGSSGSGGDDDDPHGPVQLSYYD
Glycogen synthase kinase-3 alpha, sequence (P49840 whole entry): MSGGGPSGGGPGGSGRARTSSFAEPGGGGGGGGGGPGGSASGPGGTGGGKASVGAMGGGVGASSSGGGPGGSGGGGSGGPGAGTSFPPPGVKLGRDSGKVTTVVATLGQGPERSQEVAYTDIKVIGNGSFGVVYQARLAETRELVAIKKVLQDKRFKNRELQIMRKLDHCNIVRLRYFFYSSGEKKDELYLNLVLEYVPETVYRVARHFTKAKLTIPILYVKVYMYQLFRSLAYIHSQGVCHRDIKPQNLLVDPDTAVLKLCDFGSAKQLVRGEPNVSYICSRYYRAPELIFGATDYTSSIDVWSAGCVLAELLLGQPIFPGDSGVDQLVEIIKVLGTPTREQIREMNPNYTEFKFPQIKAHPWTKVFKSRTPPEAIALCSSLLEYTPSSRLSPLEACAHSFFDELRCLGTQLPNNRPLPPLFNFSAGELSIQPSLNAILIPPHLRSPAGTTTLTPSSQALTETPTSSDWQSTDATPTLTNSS
DNA topoisomerase, sequence (A0A2S9PM60 whole entry): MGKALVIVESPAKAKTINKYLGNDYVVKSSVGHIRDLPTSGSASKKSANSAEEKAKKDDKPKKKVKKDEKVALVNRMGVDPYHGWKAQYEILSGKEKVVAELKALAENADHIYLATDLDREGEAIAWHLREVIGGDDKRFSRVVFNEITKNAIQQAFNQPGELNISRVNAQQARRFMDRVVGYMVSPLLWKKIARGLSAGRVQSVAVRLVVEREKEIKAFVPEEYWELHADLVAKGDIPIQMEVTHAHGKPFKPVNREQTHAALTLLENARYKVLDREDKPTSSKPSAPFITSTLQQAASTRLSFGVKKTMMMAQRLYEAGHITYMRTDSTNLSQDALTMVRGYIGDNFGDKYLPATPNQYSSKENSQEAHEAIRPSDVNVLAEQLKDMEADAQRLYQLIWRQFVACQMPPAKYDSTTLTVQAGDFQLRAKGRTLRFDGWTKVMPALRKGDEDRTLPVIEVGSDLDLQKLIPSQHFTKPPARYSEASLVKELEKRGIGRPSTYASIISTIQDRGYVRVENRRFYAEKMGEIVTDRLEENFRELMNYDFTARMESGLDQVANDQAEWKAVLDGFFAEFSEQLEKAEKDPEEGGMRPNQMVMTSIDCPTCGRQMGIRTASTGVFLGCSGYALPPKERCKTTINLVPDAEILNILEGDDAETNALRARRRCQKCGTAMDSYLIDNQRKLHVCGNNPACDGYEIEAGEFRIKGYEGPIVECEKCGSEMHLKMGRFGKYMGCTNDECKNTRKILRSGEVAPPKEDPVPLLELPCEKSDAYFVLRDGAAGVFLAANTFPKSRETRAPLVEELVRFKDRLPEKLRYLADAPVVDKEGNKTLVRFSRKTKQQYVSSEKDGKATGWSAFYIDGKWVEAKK
Sphingosine 1-phosphate receptor 2, sequence (O95136 whole entry): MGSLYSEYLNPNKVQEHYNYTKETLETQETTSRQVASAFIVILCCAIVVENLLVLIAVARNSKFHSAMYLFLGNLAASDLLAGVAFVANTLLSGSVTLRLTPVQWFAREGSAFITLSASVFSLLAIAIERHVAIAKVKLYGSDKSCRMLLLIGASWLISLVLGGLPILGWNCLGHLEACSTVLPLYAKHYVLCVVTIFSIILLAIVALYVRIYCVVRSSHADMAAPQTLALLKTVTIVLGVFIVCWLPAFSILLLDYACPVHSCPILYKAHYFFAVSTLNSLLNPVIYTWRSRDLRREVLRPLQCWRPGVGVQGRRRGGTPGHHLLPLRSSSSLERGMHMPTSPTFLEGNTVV
Glycogen synthase kinase-3 beta, sequence (P49841 whole entry): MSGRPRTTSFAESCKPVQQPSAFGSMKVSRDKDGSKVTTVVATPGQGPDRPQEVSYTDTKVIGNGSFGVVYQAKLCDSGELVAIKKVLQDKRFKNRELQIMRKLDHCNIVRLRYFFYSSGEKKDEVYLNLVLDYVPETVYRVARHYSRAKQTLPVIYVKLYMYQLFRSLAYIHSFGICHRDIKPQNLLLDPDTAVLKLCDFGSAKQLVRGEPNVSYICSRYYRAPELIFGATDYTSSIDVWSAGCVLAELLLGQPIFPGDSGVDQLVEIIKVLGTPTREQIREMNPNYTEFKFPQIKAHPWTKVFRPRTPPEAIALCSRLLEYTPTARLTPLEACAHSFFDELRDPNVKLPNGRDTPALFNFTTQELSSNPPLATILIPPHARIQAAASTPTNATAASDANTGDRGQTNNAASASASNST

One may read the AC50 as the concentration at which the activity in the assay is half-maximal. Turning to `CN(C(=O)COC(=O)c1cn(-c2ccccc2)nc1-c1ccccc1)C1CCS(=O)(=O)C1` (stereo not given), the concentration at half-maximal activity (AC50) in [1] was 25100 nM (active); in test [2], 679 nM (active).
The EC50 is the concentration at which the effect is half-maximal. As a reminder, the IC50 is the concentration that inhibits the measured activity by half. Take `O=C(NC(Nc1nc2ccc([N+](=O)[O-])cc2s1)(C(F)(F)F)C(F)(F)F)c1ccccc1`: the half-maximal activity concentration (AC50) in test [3] was 298 nM (active); in test [4], 1410 nM (active); in test [7] it was < 195 nM (active); in [16], 546 nM (active); in test [19], 816 nM (active); in test [22], 208 nM (active). In addition, the EC50 was 2850 nM (inconclusive) in test [5]; 1660 nM (active) in test [8]; 449 nM (active) in [9]; 394 nM (active) in test [10]; 35300 nM (not active) in [11]; 31900 nM (not active) in [13]. Further, the half-maximal effective concentration (EC50) in test [14] was > 35400 nM (not active); in test [15] it was 7500 nM (active); in [17] it was 727 nM (active); in test [18] it was 1410 nM (active); in [21], 1340 nM (active). Also, the 50% inhibitory concentration (IC50) is 1030 nM (active) in test [6], 682 nM (active) in test [12] and > 80000 nM (inactive) in [20].
`Cc1ccc(SCc2cc(O)nc(Nc3nc(C)c4ccc(C)cc4n3)n2)cc1`: in test [23], the AC50 is 2960 nM (active).
As to `COC(=O)c1nnn(-c2nonc2N)c1CSc1nc2ccccc2s1`, the values for the AC50 in test [24] and in [25] were 1310 nM (active) and 4240 nM (active), respectively.

Values taken from ChEMBL document CHEMBL1201862, “PubChem BioAssay data set” (2004).
